Assay results taken from patent US20250332173A1, “COMPOUNDS AND METHODS FOR MODULATING NUCLEIC ACID SPLICING” (REMIX THERAPEUTICS INC., priority 2021, published 2025).
Like-named read-outs stand apart in the source and are kept apart here.

Key:
SMN2 mRNA = experiment: RT-qPCR splicing assay, SMN2 canonical junction (CJ) mRNA; type: cell-based, human; conditions: Homo sapiens
In short: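 K562/A673 cells, 11-pt 3-fold compound titration from 10 uM final, DMSO ≤0.25%, 24 h 37 °C 5% CO2; lyse (DNase I or Igepal/Tris buffer pH 7.4); RT-qPCR for CJ isoform vs housekeeping gene (GAPDH/GUSB/PPIA).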

[1] = system: K562 (human chronic myelogenous leukemia) cells; experiment: Cell Titer Glo 2.0 cell viability assay; type: cell-based; conditions: Homo sapiens, K562, 72 h, K562 cells, 72 hours, Cell Titer Glo 2.0; read-out: K562 GI50
Target C = experiment: HiBiT protein abundance assay, Target C (Promega Nano-Glo HiBiT Lytic Detection System, knock-in K562 cell line); type: cell-based, human; conditions: Homo sapiens, K562, 24 h, HiBiT K562 cell line, 24 hours, top dose 10 μM; read-out: Effect on protein abundance, Target C (IC50 category)
In short: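 Protein abundance was read by Nano-Glo HiBiT lytic luminescence after 24 h compound exposure (10-point, threefold series from 10 μM final) of HiBiT knock-in K562 cells. Parental K562 served as baseline; the 50%-abundance concentration was interpolated from a four-parameter logistic fit.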

HTT mRNA = experiment: RT-qPCR splicing assay, HTT canonical junction (CJ) and alternative junction (AJ) mRNA; type: cell-based, human; conditions: Homo sapiens; for AC50: increase in HTT alternative junction (AJ) mRNA, read-out: HTT AJ AC50
In short: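 Splicing switches were read by TaqMan RT-qPCR on lysates, quantifying exon-exon junctions of the canonical and alternative-exon isoforms. Lysates came from K562 (GAPDH/GUSB reference) or A673 (PPIA reference) cells exposed 24 h to compound in 11 threefold steps from 10 uM, with DMSO ≤0.25%.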

[2] = canonical junction qPCR panel, Table 5, read-out: SMN2 (decrease in CJ mRNA levels, IC50)
[3] = decrease in HTT canonical junction (CJ) mRNA, RT-qPCR, read-out: HTT CJ IC50
[4] = canonical junction qPCR panel, Table 5, read-out: HTT (decrease in CJ mRNA levels, IC50)
[5] = Table 5 panel, canonical junction qPCR, compound concentration having 50% response in CJ decrease, read-out: SMN2 IC50 (decrease in CJ mRNA levels)
[6] = Table 5 panel, canonical junction qPCR, compound concentration having 50% response in CJ decrease, read-out: HTT IC50 (decrease in CJ mRNA levels)

| IC50 (SMN2 mRNA; [2]) | GI50 [1] | IC50 (Target C) | IC50 (HTT mRNA; [3]) | IC50 (HTT mRNA; [4]) | IC50 (SMN2 mRNA; [5]) | IC50 (HTT mRNA; [6]) | SMILES | AC50 (HTT mRNA; RT-qPCR) |
| --- | --- | --- | --- | --- | --- | --- | --- | --- |
| < 100 nM | < 100 nM | 100 to 1000 nM | 100 to 1000 nM | 100 to 1000 nM |  |  | Cc1c(O)c(-c2ncc3c(=O)n(C4C[C@H](C)N[C@@H](C)C4)ccc3n2)cc2cn(C)nc12 (stereo partly drawn) [Compound 1455, 6-[(2S,6S)-2,6-dimethyl-4-piperidyl]-2-(6-hydroxy-2,7-dimethyl-indazol-5-yl)pyrido[4,3-d]pyrimidin-5-one] | 100 to 1000 nM |
|  | 1000 to 10000 nM | 1000 to 10000 nM | 1000 to 10000 nM |  | < 100 nM | 1000 to 10000 nM | Cc1cn2nc(-c3ccc4c(c3F)CCN(C3CCNCC3)C4=O)cc(C)c2n1 [Compound 188] | 1000 to 10000 nM |
| < 100 nM | 100 to 1000 nM | 100 to 1000 nM | 1000 to 10000 nM | 100 to 1000 nM |  |  | Cc1cn2cc(-c3cc(O)c4c(=O)n(C5CCNCC5)ccc4n3)cc(F)c2n1 [Compound 1448] | 100 to 1000 nM |
| 100 to 1000 nM | 100 to 1000 nM | > 10000 nM | > 10000 nM | > 10000 nM |  |  | Cc1c(O)c(-c2ncc3c(=O)n([C@@H]4C[C@H]5C[C@@H]4CN5)ccc3n2)cc2cn(C)nc12 (stereo in doubt) [Compound 1446, 6-[(1R,4R,5R)-2-azabicyclo[2.2.1]heptan-5-yl]-2-(6-hydroxy-2,7-dimethyl-indazol-5-yl)pyrido[4,3-d]pyrimidin-5-one] | > 10000 nM |
|  | 100 to 1000 nM | 100 to 1000 nM | 100 to 1000 nM |  | 100 to 1000 nM | 100 to 1000 nM | Cc1cc(-c2cc3ccn(C4CCN(C5COC5)CC4)c(=O)c3cn2)cc2cn(C)nc12 [Compound 1209, 6-(2,7-dimethyl-2H-indazol-5-yl)-2-(1-(oxetan-3-yl)piperidin-4-yl)-2,7-naphthyridin-1(2H)-one-1] | 100 to 1000 nM |
|  | 1000 to 10000 nM | > 10000 nM | > 10000 nM |  | < 100 nM | > 10000 nM | Cc1cc(-c2cc3ccn(C4CCN(C)CC4)c(=O)c3cn2)cc2cn(C)nc12 [Compound 1206, 6-(2,7-dimethyl-2H-indazol-5-yl)-2-(1-methylpiperidin-4-yl)-2,7-naphthyridin-1(2H)-one] | > 10000 nM |
| 1000 to 10000 nM | > 10000 nM | > 10000 nM | > 10000 nM | > 10000 nM |  |  | Cc1cn2cc(-c3ccc4c(=O)n(C5CCNCC5)ccc4n3)nc(C)c2n1 [Compound 1238, 2-(2,8-dimethylimidazo[1,2-a]pyrazin-6-yl)-6-(piperidin-4-yl)-1,6-naphthyridin-5(6H)-one] | > 10000 nM |
|  | 100 to 1000 nM | 1000 to 10000 nM | 1000 to 10000 nM |  | < 100 nM | 1000 to 10000 nM | Cn1cc2cc(-c3ccc4c(=O)n(C5CCNCC5)cnc4c3)ccc2n1 [Compound 182] | 1000 to 10000 nM |
| 100 to 1000 nM | 1000 to 10000 nM | > 10000 nM | > 10000 nM | > 10000 nM |  |  | Cc1cn2cc(-c3ccc4c(=O)n(C5CCNCC5)ccc4n3)c(O)cc2n1 [Compound 1240] | > 10000 nM |
| < 100 nM | 100 to 1000 nM | 1000 to 10000 nM | 1000 to 10000 nM | 100 to 1000 nM |  |  | Cc1c(O)c(-c2ncc3c(=O)n(C4CCC(N)CC4)ccc3n2)cc2cn(C)nc12 (stereo not drawn) [Compound 1300, 6-((1s,4s)-4-aminocyclohexyl)-2-(6-hydroxy-2,7-dimethyl-2H-indazol-5-yl)pyrido[4,3-d]pyrimidin-5(6H)-one] | 100 to 1000 nM |
| < 100 nM | 100 to 1000 nM | 1000 to 10000 nM | 1000 to 10000 nM | 100 to 1000 nM |  |  | Cc1c(O)c(-c2ncc3c(=O)n(C4CCN(C)CC4)ccc3n2)cc2cn(C)nc12 [Compound 1304] | 100 to 1000 nM |
| < 100 nM | 100 to 1000 nM | 100 to 1000 nM | 100 to 1000 nM | 100 to 1000 nM |  |  | Cc1c(O)c(-c2ncc3c(=O)n(C4C[C@H]5C[C@@H]4CN5)ccc3n2)cc2cn(C)nc12 (stereo in doubt) [Compound 1444, 6-[(1R,4R,5R)-2-azabicyclo[2.2.1]heptan-5-yl]-2-(6-hydroxy-2,7-dimethyl-indazol-5-yl)pyrido[4,3-d]pyrimidin-5-one] | 100 to 1000 nM |
|  | 100 to 1000 nM | 100 to 1000 nM | 100 to 1000 nM |  | 100 to 1000 nM | 100 to 1000 nM | Cc1cn2cc(-c3ncc4c(=O)n(C5CCNC5)ccc4n3)cc(C#N)c2n1 (stereo not drawn) [Compound 1221] | 100 to 1000 nM |
| < 100 nM | 100 to 1000 nM | 1000 to 10000 nM | 1000 to 10000 nM | 1000 to 10000 nM |  |  | Cc1c(O)c(-c2ccc3c(=O)n([C@@H]4CCNC4)ccc3n2)cc2cn(C)nc12 [Compound 1450, 2-(6-hydroxy-2,7-dimethyl-indazol-5-yl)-6-[(3R)-pyrrolidin-3-yl]-1,6-naphthyridin-5-one] | 1000 to 10000 nM |
| < 100 nM | < 100 nM | 100 to 1000 nM | 100 to 1000 nM | < 100 nM |  |  | Cc1c(O)c(-c2ccc3c(=O)n(C4CCNCC4)cc(C)c3n2)cc2cn(C)nc12 [Compound 1284] | < 100 nM |
|  | > 10000 nM | > 10000 nM | > 10000 nM |  | 100 to 1000 nM | > 10000 nM | Cc1cc(-c2cc3ccn(C4CCN(C5CC5)CC4)c(=O)c3cn2)cc2cn(C)nc12 [Compound 1208, 2-(1-cyclopropylpiperidin-4-yl)-6-(2,7-dimethyl-2H-indazol-5-yl)-2,7-naphthyridin-1(2H)-one] | > 10000 nM |
| < 100 nM | 100 to 1000 nM | 1000 to 10000 nM | 1000 to 10000 nM | 1000 to 10000 nM |  |  | Cc1c(O)c(-c2ccc3c(=O)n([C@H]4CCNC4)ccc3n2)cc2cn(C)nc12 [Compound 1449, 2-(6-hydroxy-2,7-dimethyl-indazol-5-yl)-6-[(3S)-pyrrolidin-3-yl]-1,6-naphthyridin-5-one] | 1000 to 10000 nM |
|  | 1000 to 10000 nM | > 10000 nM | > 10000 nM |  | 100 to 1000 nM | > 10000 nM | Cc1cn2cc(-c3ncc4c(=O)n(C5CCNC5)ccc4n3)c(O)c(C)c2n1 (stereo not drawn) [Compound 1227] | > 10000 nM |
|  | 1000 to 10000 nM | 1000 to 10000 nM | > 10000 nM |  | < 100 nM | > 10000 nM | Cc1cn2cc(-c3ncc4c(=O)n(C5CCNC5)ccc4n3)cc(F)c2n1 (stereo not drawn) [Compound 1215] | > 10000 nM |
|  | 100 to 1000 nM | 100 to 1000 nM | 100 to 1000 nM |  | 100 to 1000 nM | 100 to 1000 nM | Cc1cn2nc(-c3cc4ccn(C5CCNCC5)c(=O)c4cn3)cc(C)c2n1 [Compound 1198, 6-(2,8-dimethylimidazo[1,2-b]pyridazin-6-yl)-2-(piperidin-4-yl)-2,7-naphthyridin-1(2H)-one] | 100 to 1000 nM |
|  | 1000 to 10000 nM | 1000 to 10000 nM | 1000 to 10000 nM |  | < 100 nM | 1000 to 10000 nM | Cn1cc2cc(-c3cc4ccn(C5CCNCC5)c(=O)c4cn3)c(O)c(F)c2n1 [Compound 1199] | 1000 to 10000 nM |

| SMILES | IC50 (SMN2 mRNA; [2]) | GI50 [1] | IC50 (Target C) | IC50 (HTT mRNA; [3]) | IC50 (HTT mRNA; [4]) | IC50 (SMN2 mRNA; [5]) | IC50 (HTT mRNA; [6]) | AC50 (HTT mRNA; RT-qPCR) |
| --- | --- | --- | --- | --- | --- | --- | --- | --- |
| Cc1c(O)c(-c2ncc3c(=O)n([C@@H]4C[C@H]5CC[C@@H](C4)N5)ccc3n2)cc2cn(C)nc12 [Compound 1429, 6-[(1S,5R)-8-azabicyclo[3.2.1]octan-3-yl]-2-(6-hydroxy-2,7-dimethyl-indazol-5-yl)pyrido[4,3-d]pyrimidin-5-one] | < 100 nM | 100 to 1000 nM | 100 to 1000 nM | 100 to 1000 nM | 100 to 1000 nM |  |  | 100 to 1000 nM |
